# In PubChem BioAssay (NCI):
#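 Here, GI50 denotes the concentration required for 50% inhibition of growth. Definition used: TGI = concentration required for complete inhibition of growth.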 Residues, ends and D or L forms follow the SMILES beside them. *: point of attachment. Cbz = O=C(OCc1ccccc1)*
# Legend:
# Test in all cases: NCI tumour cell line growth inhibition, 384-well format
# 786-0 renal = system: 786-0 renal
# A498 renal = system: A498 renal
# A549 NSCLC = system: A549 NSCLC
# ACHN renal = system: ACHN renal
# CAKI-1 renal = system: CAKI-1 renal
# COLO 205 colon = system: COLO 205 colon
# EKVX NSCLC = system: EKVX NSCLC
# HCC-2998 colon = system: HCC-2998 colon
# HCT-15 colon = system: HCT-15 colon
# HL-60(TB) leukemia = system: HL-60(TB) leukemia
# HOP-62 NSCLC = system: HOP-62 NSCLC
# HOP-92 NSCLC = system: HOP-92 NSCLC
# HT29 colon = system: HT29 colon
# IGROV1 ovarian = system: IGROV1 ovarian
# K-562 leukemia = system: K-562 leukemia
# LOX IMVI melanoma = system: LOX IMVI melanoma
# MALME-3M melanoma = system: MALME-3M melanoma
# MDA-MB-231 breast = system: MDA-MB-231 breast
# MDA-MB-468 breast = system: MDA-MB-468 breast
# MOLT-4 leukemia = system: MOLT-4 leukemia
# NCI-H226 lung = system: NCI-H226 lung
# NCI-H23 lung = system: NCI-H23 lung
# NCI-H322M lung = system: NCI-H322M lung
# NCI-H460 NSCLC = system: NCI-H460 NSCLC
# NCI-H522 lung = system: NCI-H522 lung
# NCI/ADR-RES ovarian = system: NCI/ADR-RES ovarian
# OVCAR-3 ovarian = system: OVCAR-3 ovarian
# OVCAR-4 ovarian = system: OVCAR-4 ovarian
# OVCAR-5 ovarian = system: OVCAR-5 ovarian
# OVCAR-8 ovarian = system: OVCAR-8 ovarian
# PC-3 prostate = system: PC-3 prostate
# RPMI-8226 leukemia = system: RPMI-8226 leukemia
# RXF 393 renal = system: RXF 393 renal
# SF-295 CNS = system: SF-295 CNS
# SK-MEL-2 melanoma = system: SK-MEL-2 melanoma
# SK-MEL-5 melanoma = system: SK-MEL-5 melanoma
# SN12C renal = system: SN12C renal
# SNB-19 CNS = system: SNB-19 CNS
# SNB-75 CNS = system: SNB-75 CNS
# SR leukemia = system: SR leukemia
# SW-620 colon = system: SW-620 colon
# T-47D breast = system: T-47D breast
# TK-10 renal = system: TK-10 renal
# U251 glioblastoma = system: U251 glioblastoma
# UACC-257 melanoma = system: UACC-257 melanoma
# UACC-62 melanoma = system: UACC-62 melanoma
# UO-31 renal = system: UO-31 renal
smiles,measurement,setting,value
CC(C)C[C@@H](C=O)NC(=O)[C@H](CC(C)C)NC(=O)[C@H](CC(C)C)NC(=O)OCc1ccccc1 (Cbz-Leu-Leu-Leu-aldehyde),GI50,786-0 renal,180 nM
same,TGI,786-0 renal,361 nM
same,GI50,A498 renal,263 nM
same,TGI,A498 renal,796 nM
same,GI50,A549 NSCLC,427 nM
same,TGI,A549 NSCLC,1690 nM
same,GI50,ACHN renal,202 nM
same,TGI,ACHN renal,425 nM
same,GI50,CAKI-1 renal,228 nM
same,TGI,CAKI-1 renal,676 nM
same,GI50,COLO 205 colon,258 nM
same,TGI,COLO 205 colon,714 nM
same,GI50,EKVX NSCLC,222 nM
same,TGI,EKVX NSCLC,534 nM
same,GI50,HCC-2998 colon,179 nM
same,TGI,HCC-2998 colon,327 nM
same,GI50,HCT-15 colon,194 nM
same,TGI,HCT-15 colon,362 nM
same,GI50,HL-60(TB) leukemia,171 nM
same,TGI,HL-60(TB) leukemia,311 nM
same,GI50,HOP-62 NSCLC,180 nM
same,TGI,HOP-62 NSCLC,339 nM
same,GI50,HOP-92 NSCLC,179 nM
same,TGI,HOP-92 NSCLC,328 nM
same,GI50,HT29 colon,178 nM
same,TGI,HT29 colon,335 nM
same,GI50,IGROV1 ovarian,184 nM
same,TGI,IGROV1 ovarian,358 nM
same,GI50,K-562 leukemia,176 nM
same,TGI,K-562 leukemia,334 nM
same,GI50,LOX IMVI melanoma,158 nM
same,TGI,LOX IMVI melanoma,298 nM
same,GI50,MALME-3M melanoma,155 nM
same,TGI,MALME-3M melanoma,291 nM
same,GI50,MDA-MB-231 breast,177 nM
same,TGI,MDA-MB-231 breast,326 nM
same,GI50,MDA-MB-468 breast,126 nM
same,TGI,MDA-MB-468 breast,253 nM
same,GI50,MOLT-4 leukemia,74.8 nM
same,TGI,MOLT-4 leukemia,200 nM
same,GI50,NCI-H226 lung,188 nM
same,TGI,NCI-H226 lung,372 nM
same,GI50,NCI-H23 lung,163 nM
same,TGI,NCI-H23 lung,310 nM
same,GI50,NCI-H322M lung,361 nM
same,TGI,NCI-H322M lung,1290 nM
same,GI50,NCI-H460 NSCLC,200 nM
same,TGI,NCI-H460 NSCLC,380 nM
same,GI50,NCI-H522 lung,85.8 nM
same,TGI,NCI-H522 lung,225 nM
same,GI50,NCI/ADR-RES ovarian,1570 nM
same,TGI,NCI/ADR-RES ovarian,3060 nM
same,GI50,OVCAR-3 ovarian,94 nM
same,TGI,OVCAR-3 ovarian,225 nM
same,GI50,OVCAR-4 ovarian,174 nM
same,TGI,OVCAR-4 ovarian,324 nM
same,GI50,OVCAR-5 ovarian,213 nM
same,TGI,OVCAR-5 ovarian,440 nM
same,GI50,OVCAR-8 ovarian,164 nM
same,TGI,OVCAR-8 ovarian,313 nM
same,GI50,PC-3 prostate,177 nM
same,TGI,PC-3 prostate,325 nM
same,GI50,RPMI-8226 leukemia,30.1 nM
same,TGI,RPMI-8226 leukemia,70.2 nM
same,GI50,RXF 393 renal,149 nM
same,TGI,RXF 393 renal,283 nM
same,GI50,SF-295 CNS,192 nM
same,TGI,SF-295 CNS,385 nM
same,GI50,SK-MEL-2 melanoma,134 nM
same,TGI,SK-MEL-2 melanoma,268 nM
same,GI50,SK-MEL-5 melanoma,215 nM
same,TGI,SK-MEL-5 melanoma,370 nM
same,GI50,SN12C renal,177 nM
same,TGI,SN12C renal,355 nM
same,GI50,SNB-19 CNS,161 nM
same,TGI,SNB-19 CNS,340 nM
same,GI50,SNB-75 CNS,185 nM
same,TGI,SNB-75 CNS,351 nM
same,GI50,SR leukemia,24.7 nM
same,TGI,SR leukemia,98 nM
same,GI50,SW-620 colon,138 nM
same,TGI,SW-620 colon,275 nM
same,GI50,T-47D breast,169 nM
same,TGI,T-47D breast,319 nM
same,GI50,TK-10 renal,195 nM
same,TGI,TK-10 renal,417 nM
same,GI50,U251 glioblastoma,211 nM
same,TGI,U251 glioblastoma,407 nM
same,GI50,UACC-257 melanoma,131 nM
same,TGI,UACC-257 melanoma,263 nM
same,GI50,UACC-62 melanoma,168 nM
same,TGI,UACC-62 melanoma,312 nM
same,GI50,UO-31 renal,179 nM
same,TGI,UO-31 renal,324 nM
